This is an account of results in PubChem BioAssay (NCI).

What is called TGI is the concentration giving total growth inhibition. Higher therefore signals less potent growth arrest. For orientation: GI50 means the concentration giving 50% growth inhibition.

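A five-concentration, 48-hour dose response in 96-well plates underlies each endpoint, interpolated linearly between surrounding concentrations. At the GI50, growth is halved. TGI: concentration producing complete growth inhibition.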

Common to all, as to test: DTP human tumour cell line panel, 48 h
The subject of test [1] is A498 renal.
For test [2], the system named is HL-60(TB) leukemia.
The subject of test [3] is KM12 colon.
In test [4] the test system is MALME-3M melanoma.
The test system of test [5] is SK-MEL-5 melanoma.
Test [6] has as its system SK-OV-3 ovarian.
Test [7] concerns SN12C renal.
The subject of test [8] is UO-31 renal.
Test [9] concerns SF-268 CNS.
The subject of test [10] is HCC-2998 colon.

As for `CCCCC(C)/C=C/C(=O)C1=C(O)/C(=C/C(=O)O)OC1=O` (stereo unspecified), the concentration for total growth inhibition (TGI) in test [1], in test [2], in test [3], in [4], in [5] and in test [6] was more than 100 µM in each case. The total growth inhibition concentration (TGI) in [7] and in test [8] was more than 100 µM each time.

As to `CC(=O)Oc1ccc2c(c1)[C@@]1(C)CCCC(C)(C)[C@@H]1CC2`, the GI50 in test [2] was 34.7 µM; in test [3], 19.2 µM; in test [9], 20.9 µM; in [5], 30.9 µM; in [7], 18.6 µM; in [8], 31.3 µM. The concentration for total growth inhibition (TGI) in [2] is more than 100 µM; in [3], 45 µM; in test [9], 47.9 µM; in [5], 73.6 µM; in test [7], 33.1 µM; in test [8], 79.9 µM.

`C/C(=N\NC(=O)C[N+](C)(C)C)c1sc(-c2cccnc2)nc1C`: the concentration for total growth inhibition (TGI) in test [10], in [2], in test [3], in test [4], in test [9] and in test [5] was more than 100 µM in each case. For the same compound, the TGI in [6] and in test [8] was more than 100 µM throughout.

For the compound `CCOC(=O)C(=O)Nc1cc(Cl)c(Cl)cc1Cl`, the concentration for total growth inhibition (TGI) in test [10], in test [3], in test [4], in [9], in [5] and in [6] was more than 100 µM each time. In addition, the TGI in [7] and in test [8] was more than 100 µM each time.

With `Nc1ccccc1C#C/C=C\C#CC#C/C=C\C#Cc1ccccc1N`, the GI50 was 5.36 µM in test [1]; 2.25 µM in test [10]; 3.64 µM in test [3]; 11.7 µM in [4]; 5.93 µM in test [9]; 8.43 µM in [5]. The GI50 in [6] was 22.8 µM; in test [7], 3.05 µM; in test [8], 1.94 µM. Besides, the TGI in test [1] was 20.6 µM; in test [10], 8.03 µM; in test [3], more than 100 µM; in [4] it was 67.1 µM; in [9] it was 26.2 µM; in test [5], 22.9 µM. Besides, the results for the TGI in test [6], in [7] and in test [8] were more than 100 µM, 16.4 µM and 16.8 µM, respectively.

`NCCCOc1cc2ccccc2cc1C(=O)Nc1ccc(Cl)cc1OC(=O)c1cc2ccccc2cc1OCCCN`: the GI50 in test [1] was 1.53 µM; in [10], 1.43 µM; in test [2] it was 0.517 µM; in test [3], 0.19 µM; in test [9], 0.922 µM; in test [5] it was 1.23 µM. For the same compound, the GI50 in [6] is 1.57 µM; in [7], 0.742 µM; in test [8] it was 0.179 µM. Besides, the TGI in [1] was 2.92 µM; in test [10] it was 2.82 µM; in [2], 2.37 µM; in test [3], 0.394 µM; in [9] it was 2.44 µM; in [5], 2.49 µM. Moreover, the results for the TGI in [6], in [7] and in test [8] were 3.19 µM, 2.23 µM and 0.433 µM, respectively.

Consider `C/C=C/C/C=C/[C@H](C)C[C@H](O)[C@@H]1C[C@@H]2O[C@H]2/C=C/[C@@H]2OC(C)(C)O[C@H]2/C=C/C[C@H](C)CC(=O)O1`, for which the GI50 was more than 100 µM in [1]; more than 100 µM in test [10]; 5.6 µM in test [2]; 7.85 µM in [3]; 10.4 µM in test [9]; 4.39 µM in test [5]. Further, the GI50 was 24.5 µM in [6], 5.23 µM in [7] and 3.01 µM in test [8]. In addition, the TGI was more than 100 µM in test [1]; more than 100 µM in test [10]; 30.9 µM in test [2]; more than 100 µM in test [3]; more than 100 µM in test [9]; 44 µM in [5]. Further, the total growth inhibition concentration (TGI) in test [6] is more than 100 µM; in test [7], more than 100 µM; in test [8], 18.7 µM.

For the compound `C=C1c2ccccc2C(=O)c2c1c1c(C(=O)OC)c(OC(=O)OCc3ccc([N+](=O)[O-])cc3)ccc1n2Cc1ccccc1`, the GI50 was 65.5 µM in test [1]; 16.7 µM in test [10]; 12.7 µM in test [3]; 36 µM in test [4]; 46.4 µM in [9]; 29.1 µM in [5]. Moreover, the GI50 in test [6] is 23.8 µM; in test [7], 11 µM; in test [8] it was 8.28 µM. Also, the TGI in [1] is more than 100 µM; in test [10] it was 39 µM; in [3] it was 61.4 µM; in [4] it was more than 100 µM; in test [9], more than 100 µM; in test [5], 64.3 µM. For the same compound, the total growth inhibition concentration (TGI) is 57.6 µM in test [6], 42.6 µM in test [7] and 45.4 µM in test [8].

With `COC(=O)CCC(=O)N1C/C(=C\c2ccccc2)C(=O)/C(=C/c2ccccc2)C1`, the total growth inhibition concentration (TGI) in test [1] was 4.45 µM; in [10] it was 3.06 µM; in [3], 2.84 µM; in test [4] it was 4.62 µM; in [9], 5.89 µM; in [5] it was 5.44 µM. The total growth inhibition concentration (TGI) is 13.9 µM in [6], 3.44 µM in test [7] and 3.97 µM in test [8].

`N#CC1=C(N)NC(=S)NC1c1ccc(-c2ccc(-c3nc4ccccc4o3)cc2)s1` (stereo unspecified): the GI50 in test [2] is 24.1 µM; in test [3] it was 15.1 µM; in test [9], 10.7 µM; in [5], 9.14 µM; in [6] it was 11 µM; in test [7], 10.6 µM. The GI50 in test [8] was 7.89 µM. The concentration for total growth inhibition (TGI) in [2] was more than 50 µM; in [3], more than 50 µM; in test [9] it was 26.5 µM; in test [5], 18.3 µM; in test [6] it was 31 µM; in test [7], 28.4 µM. This compound also returned a total growth inhibition concentration (TGI) in test [8] of 17 µM.
